Experiment: in vitro
Settings: human, hela cells, % viability

Row | SMILES | viability at 28.5 h, 10 µM [%] | viability at 28.5 h, 10 µM (bulk resorufin, single well) [%]
1 | CC(C)(C)NCC(O)COc1c(F)cc(Br)cc1F (stereo not shown) [CBK020879C] | 107 | –
2 | CCOC(=O)c1sc(C)c(C(N)=O)c1/N=C1\CCCN1 [CBK020893] | 105 | –
3 | CCCC(SCC)C(N)=O (stereo not shown) [CBK020895] | 99.1 | –
4 | COC(=O)c1cc(Cl)c(NC(=S)NC(=O)C(C)(C)C)cc1OC [CBK020937] | 94.1 | –
5 | CCOC(=O)C1(c2ccccc2)CCN(CC(=O)Nc2ccc(C(=O)OC)cc2)CC1 [CBK020942] | – | 92.9
6 | CCOC(=O)c1sc2ccc(NC(C)=O)cc2c1C [CBK021052] | 76.8 | –
7 | COc1ccc(C2NCCS2)cc1Br (stereo not shown) [CBK021053] | 104 | –
8 | COc1ccc(CCOC(=O)Nc2cn(C)nc2C(F)(F)F)cc1OC [CBK021070] | 105 | –
9 | IC1COC(c2ccccc2)OC1 (stereo not shown) [CBK021109] | 110 | –
10 | CN1CCC(N(C2CC2)S(=O)(=O)c2ccc(NC(=O)C(C)(C)C)cc2)CC1 [CBK021115] | 99 | –
11 | Cc1oc(-c2cccs2)cc1C(=O)O [CBK021183] | 93.5 | –
12 | Cc1ccc(COCSc2nc3ccccc3n2CC(O)CO)cc1C (stereo not shown) [CBK021195] | 85.1 | –
13 | CC(=O)c1cc2c(N)c(/C(N)=N/C#N)sc2nc1C [CBK021202] | 70.7 | –
14 | Brc1csc(CNc2ccc3cn[nH]c3c2)c1 [CBK021216] | 75.1 | –
15 | Cc1ccc(CCn2cc(C)nc2C)cn1 [CBK021231] | 106 | –
16 | COc1ccc2cc3c(nc2c1)Sc1nncn1N=C3 [CBK021248] | 100 | –
17 | CNC(=S)N/N=C/c1c(C)cccc1Cl [CBK021253] | 84.6 | –
18 | C/C(=N\c1ccccc1C(F)(F)F)c1ccncc1 [CBK021262] | 86.6 | –
19 | O=C(Nc1ccccn1)NC1CCS(=O)(=O)C1 (stereo not shown) [CBK021330] | 99.9 | –
20 | CCOC(=O)c1c(C#N)c(SCc2ccc(Cl)cc2)nc2c1CN(CC)CC2 [CBK021337] | 90.9 | –
21 | Nc1nnc2c(C(F)(F)F)nc3ccccc3n12 [CBK021345] | 82.1 | –
22 | COC(=O)c1ccc(Cl)cc1N(Cc1c(F)cccc1Cl)S(C)(=O)=O [CBK021351] | 85.3 | –
23 | Cc1ccc(CCn2nc(C)cc2C)cn1 [CBK021375] | 104 | –
24 | CCOC(=O)C1=NN(C)c2cnn(Cc3ccc(Cl)cc3)c(=O)c2C1C(=O)CC(C)C (stereo not shown) [CBK021389] | 91.9 | –
25 | COc1ccccc1N1C(=O)[C@H]2N=C(C(=O)c3cnccn3)N[C@H]2C1=O [CBK021406] | 90.3 | –

Row | SMILES | viability at 28.5 h, 10 µM [%] | viability at 28.5 h, 10 µM (bulk resorufin, single well) [%]
26 | COC(=O)c1cn(C(=O)c2snnc2C)nc1C(C)(C)C [CBK021420] | 89.2 | –
27 | CCOC(=O)C(NC(=O)N(C1=NCC(C)S1)C1CCCCC1)(OC)C(F)(F)F (stereo not shown) [CBK021431] | 96.8 | –
28 | CCCCSc1cc(C)nc2ncnn12 [CBK021443] | 105 | –
29 | COc1ccc(Cc2nc(C(C)(C)C)cs2)cc1 [CBK021497B] | 85 | –
30 | CCOC(=O)C1=C(C)Nc2nc(C)nc(Cl)c2O1 [CBK021504] | 103 | –
31 | CC(C)(C)c1csc(Nc2ncc(C(F)(F)F)cc2Cl)n1 [CBK021513] | 77.5 | –
32 | N=C(N)NC(=N)Nc1ccc2c(c1)OCCO2 [CBK021572C] | 84.3 | –
33 | c1ccc(NCc2ncnc3c2ncn3C2CCCCO2)cc1 (stereo not shown) [CBK021593] | 100 | –
34 | CC(C)(C)NC(=O)NCC(c1ccc[nH]1)C(F)(F)F (stereo not shown) [CBK021595] | 92.3 | –
35 | Nc1nc(Cl)cc(Sc2ccc3ccccc3c2)n1 [CBK021630] | 97.4 | –
36 | CCc1c(C)sc(NC(=O)c2ccc(Br)o2)c1C#N [CBK021662] | 83.6 | –
37 | CNCCC(Sc1ccccn1)c1ccccc1 (stereo not shown) [CBK021724C] | 93.5 | –
38 | CCOC(=O)Cc1nnc(-c2ccc(Cl)cc2)[nH]1 [CBK021882] | 89.1 | –
39 | O=C(CCS(=O)(=O)c1ccc(Br)cc1)OCC(=O)c1ccccc1 [CBK021886] | 104 | –
40 | FC(F)(F)c1ccncc1-n1cccc1 [CBK021909] | 85.9 | –
41 | O=C(O)COCCn1cc(-c2ccc(Cl)cc2)cn1 [CBK021914] | 84.5 | –
42 | CC(C)(C)c1csc(N2CCSCC2)n1 [CBK021950] | 119 | –
43 | Oc1ccccc1-c1ccnc(SC(F)F)n1 [CBK021971] | 81.8 | –
44 | C/C(=N\N=C1\N=C(O)C(CC(=O)O)S1)c1ccco1 (stereo not shown) [CBK021973] | 96.8 | –
45 | Cc1ccc2nc(NC(=O)C(C)(C)C)nc(O)c2c1 [CBK021975] | 97.7 | –
46 | COc1cc(NC(=S)P(=O)(c2ccccc2)c2ccccc2)c(OC)cc1Cl [CBK021976] | 95.6 | –
47 | Cc1nc2ccccc2n1C(F)(F)C(F)F [CBK022023] | 116 | –
48 | Oc1cc(Cl)c(-c2ccccc2)nn1 [CBK022028] | 88.4 | –
49 | C/N=C1/c2cn3ccccc3c2CCN1C [CBK022058] | 116 | –
50 | O=C(c1ccno1)n1nccc1-c1cc(-c2ccccc2)no1 [CBK022074] | 101 | –

Row | SMILES | viability at 28.5 h, 10 µM [%] | viability at 28.5 h, 10 µM (bulk resorufin, single well) [%]
51 | Cc1nnc(SCC(=O)Nc2nnc(C(C)C)s2)[nH]c1=O [CBK022107] | 87 | –
52 | COc1cccc(-n2cnc3cccc(N)c32)c1 [CBK022114] | 94.9 | –
53 | COc1ccc2cc([C@@H](O)C[C@@H](C)O)c(Cl)nc2c1 [CBK022146] | 104 | –
54 | CC1(C)C2C(=O)C(c3ccccn3)=C(N)N2C(C)(C)C1(C)C (stereo not shown) [CBK022153] | 110 | –
55 | Cn1ccc(C2=C(N)C(C#N)C3=C(CC(C)(C)CC3=O)O2)c1 (stereo not shown) [CBK022168] | 109 | –
56 | COc1ccc2c(-c3cc(N)sn3)c(C)oc2c1 [CBK022260] | 83.8 | –
57 | Cc1cc(C)nc(N2CCN(C(=O)CCC(=O)NCc3cccc(C(F)(F)F)c3)CC2)n1 [CBK022261] | 107 | –
58 | O=C(NC1CCCCC1)c1s/c(=N/O)nnc1Nc1ccccc1 [CBK022275] | 93.8 | –
59 | CCN(CC)C(=O)c1c(F)ccc(F)c1C(=O)O [CBK022303] | 85 | –
60 | O=C1C2C=NNC2C(=O)N1c1ccccc1 (stereo not shown) [CBK022326] | 103 | –
61 | COCc1cc(O)nc(Cc2c(Cl)cccc2Cl)n1 [CBK022389] | 96.7 | –
62 | O=C(c1ccc(Br)o1)n1cc(C(F)(F)F)ccc1=O [CBK022391] | 108 | –
63 | Nc1nc2sc3c(c2cc1C(=O)N1CCOCC1)CCCC3 [CBK022399] | 96.1 | –
64 | COc1ccc(S(=O)(=O)N(C)c2ccc(N3CCNCC3)c3ccccc23)cc1 [CBK022404C] | 94.9 | –
65 | CC1(C)CC(=O)C2=C(C1)CC1(C)CC(C)(C)CC2(Nc2ccccn2)C1 (stereo not shown) [CBK022425] | 121 | –
66 | Cc1ccccc1N1C(=O)c2ccc(Br)cc2C1=O [CBK022430] | 90.9 | –
67 | Cc1cc(NS(=O)(=O)c2cccc(Cl)c2C)on1 [CBK022499] | 92 | –
68 | c1cc(OCc2cccs2)cc(N2CCNCC2)c1 [CBK022557F] | 89.3 | –
69 | c1cc(COc2ccc(N3CCNCC3)nn2)co1 [CBK022562] | 95.7 | –
70 | CS(=O)(=O)N1CC2(CCN(C(=O)[C@@H](N)COCc3ccccc3)CC2)c2ccccc21 [CBK022597C] | 104 | –
71 | O=C1OCc2ccc3c(c21)COCO3 [CBK022696] | 107 | –
72 | CC(=O)NC(Cc1c[nH]c2ccccc12)/C(C)=N/O (stereo not shown) [CBK022711] | 120 | –
73 | Cc1ccc(S(=O)(=O)Nc2nnc(C3CCCCC3)s2)cc1 [CBK022722] | 101 | –
74 | CC1=CC(C)C(=S)NC(C)=C1 (stereo not shown) [CBK022735] | 91 | –
75 | CC1=Nc2ccc(Cl)cc2C(C)(C)O1 [CBK022763C] | 107 | –

Row | SMILES | viability at 28.5 h, 10 µM [%] | viability at 28.5 h, 10 µM (bulk resorufin, single well) [%]
76 | Nc1ccccc1NC(=O)NC(=O)c1ccccc1 [CBK022767] | 94 | –
77 | Cc1cc(C(=O)O)c(C)cc1N [CBK022781] | 95.5 | –
78 | C/N=c1\cccccc1NC [CBK022788] | 110 | –
79 | CCN(CC)CCC(C(=O)c1ccccc1)S(C)(=O)=O (stereo not shown) [CBK022802] | 88.8 | –
80 | NC(=S)c1ccc2c(c1)OCO2 [CBK022803] | 86.3 | –
81 | O=C(O)C(O)(c1ccccc1)c1cccs1 (stereo not shown) [CBK022808] | – | 108
82 | COc1ccc2c(c1)CCC1(C)C2=C(C(=O)O)CC1O (stereo not shown) [CBK022814] | 103 | –
83 | COc1ccc(S(=O)(=O)NC(=O)NCC2CC3C=CC2C3)cc1 (stereo not shown) [CBK022821] | 88.7 | –
84 | OCC1CCC(O)C(CO)N1 (stereo not shown) [CBK022827C] | 86.5 | –
85 | CCCCNC(=O)OC1CCN(CCc2ccccc2)CC1 [CBK022839C] | 89.2 | –
86 | CCCCSc1nnc(NS(=O)(=O)c2ccc(NC(C)=O)cc2)s1 [CBK022853] | 98.5 | –
87 | CN(C)CCCOC(=O)CN1c2ccccc2CCc2ccccc21 [CBK022863C] | 97 | –
88 | O=C(O)c1ccc(S(=O)(=O)c2ccc(C(=O)O)c(C(=O)O)c2)cc1C(=O)O [CBK022872] | 93.1 | –
89 | CN1c2ccccc2C(c2ccccc2)=NS1(=O)=O [CBK022873] | 92.1 | –
90 | Cc1noc(N)c1C1OC(=O)c2ccccc21 (stereo not shown) [CBK022932] | 104 | –
91 | Cc1cc(Cl)c(OC(=O)NC2CCCCC2)cc1C [CBK022948] | – | 90.1
92 | COc1ccc(-c2cc[nH]n2)c(OC)c1OC [CBK022957C] | 82 | –
93 | CCCCNC(=O)NS(N)(=O)=O [CBK022990] | 109 | –
94 | CC1=NS(=O)(=O)NC2=C1CCCC2 [CBK022998] | 96.6 | –
95 | CCN(CC)CCN1C(=O)CCC2(c3ccccc3)CCC(=O)C=C12 (stereo not shown) [CBK023010C] | 105 | –
96 | C/C(=N\NC(=N)N)C(F)(F)F [CBK023019G] | 90.1 | –
97 | Cc1cc(-c2ccccc2)nn(CCN2CCOCC2)c1=O [CBK023022C] | 88 | –
98 | O=C1CN(Cc2ccc(Cl)cc2)CCO1 [CBK023036C] | 88.7 | –
99 | O=C1c2ccc(S(=O)(=O)c3ccc4c(c3)C(=O)N(CCO)C4=O)cc2C(=O)N1CCO [CBK023065] | 112 | –
100 | CCOC1=NCCN2CCc3cccc1c32 [CBK023113] | 117 | –
